Measurements as given in patent publication US20210045986A1, “COMPOSITION FOR PREVENTION OR TREATMENT OF SKIN INFECTION” (CARESIDE CO., LTD., priority 2018, published 2021).

Experiment: Precipitate generation prevention experiment of liquid formulation under accelerated storage
Assay type: physicochemical
Parameters: key: O: Generated; X: Non-Generated
Settings: for Whether or not a precipitate is generated: 1.0% malic acid, 0.3% sodium borate; for Result: whether or not a precipitate is generated: chlorhexidine gluconate 0.1, terbinafine hydrochloride 0.1, ethanol 59 wt %
Source text: As described above, most liquid medicines include excipients including chloride ions, and the composition of the present invention in combination with terbinafine hydrochloride may also cause precipitation. However, it may further include malic acid and sodium borate to prevent the generation of precipitates of terbinafine hydrochloride. Hereinafter, a description will be given of the precipitate generation experiments of terbinafine hydrochloride.
First, a liquid formulation containing terbinafine hydrochloride, chlorhexidine gluconate and ciclopirox olamine is prepared as shown in the following [Table 3]. Malic acid or polycarboxylic acid other than malic acid is added to the prepared liquid formulation, and the presence or absence of a precipitate is observed.
First, malic acid, citric acid, oxalic acid and tartaric acid are prepared as a polycarboxylic acid such as malic acid. To the liquid formulation prepared in the above [Table 3], polycarboxylic acid was added in 0.1, 0.3, 0.5, 0.7, 1.0, 2.0, 3.0, 4.0, 5.0 (w/v %), respectively, and then chlorhexidine gluconate is adjusted to a stable pH of 5.0 using a pH adjusting agent. And, the liquid formulations were stored under accelerated conditions of 40±2° C. and relative humidity of 75±5% to observe the presence or absence of precipitates. […]
Next, after adding 1.0% of malic acid and 0.3% of sodium borate, an experiment is performed to determine whether precipitates are generated by adjusting the content of chlorhexidine gluconate, terbinafine hydrochloride, and ciclopirox olamine. The experimental results are shown in the following [Table 6] and [Table 7], and experiments were performed on whether or not precipitates of the liquid formulations prepared without adding malic acid and sodium borate are generated were shown in [Table 8].

[1] = concentration of the ingredient 0.1 %
[2] = concentration of the ingredient 0.3 %
[3] = concentration of the ingredient 0.5 %
[4] = concentration of the ingredient 1.0 %
[5] = concentration of the ingredient 2.0 %
[6] = concentration of the ingredient 3.0 %
[7] = concentration of the ingredient 4.0 %
[8] = concentration of the ingredient 5.0 %
[9] = concentration of the ingredient 6.0 %

N=C(NCCCCCCNC(=N)NC(=N)Nc1ccc(Cl)cc1)NC(=N)Nc1ccc(Cl)cc1 [Chlorhexidine Gluconate, chlorhexidine gluconate]
O: Whether or not a precipitate is generated [8] | Whether or not a precipitate is generated [9]
X: Whether or not a precipitate is generated [1] | Whether or not a precipitate is generated [2] | Whether or not a precipitate is generated [3] | Whether or not a precipitate is generated [4] | Whether or not a precipitate is generated [5] | Whether or not a precipitate is generated [6] | Whether or not a precipitate is generated [7]

Cc1cc(C2CCCCC2)n(O)c(=O)c1 [Ciclopirox Olamine, 2(1H)-Pyridinone, 6-cyclohexyl-1-hydroxy-4-methyl-compound with 2-aminoethanol (1:1)]
O: Result: whether or not a precipitate is generated (ciclopirox olamine 0.1 wt %, without malic acid and sodium borate, pH adjustment x) | Result: whether or not a precipitate is generated (ciclopirox olamine 0.2 wt %, without malic acid and sodium borate, pH adjustment x) | Result: whether or not a precipitate is generated (ciclopirox olamine 0.3 wt %, without malic acid and sodium borate, pH adjustment x) | Result: whether or not a precipitate is generated (ciclopirox olamine 0.4 wt %, without malic acid and sodium borate, pH adjustment x) | Result: whether or not a precipitate is generated (ciclopirox olamine 0.5 wt %, without malic acid and sodium borate, pH adjustment x) | Result: whether or not a precipitate is generated (ciclopirox olamine 0.6 wt %, without malic acid and sodium borate, pH adjustment x) | Result: whether or not a precipitate is generated (ciclopirox olamine 0.7 wt %, without malic acid and sodium borate, pH adjustment x) | Result: whether or not a precipitate is generated (ciclopirox olamine 0.8 wt %, without malic acid and sodium borate, pH adjustment x) | Result: whether or not a precipitate is generated (ciclopirox olamine 0.9 wt %, without malic acid and sodium borate, pH adjustment x)
X: Result: whether or not a precipitate is generated (ciclopirox olamine 0.1 wt %, malic acid and sodium borate, pH 5.3~5.7) | Result: whether or not a precipitate is generated (ciclopirox olamine 0.3 wt %, malic acid and sodium borate, pH 5.3~5.7) | Result: whether or not a precipitate is generated (ciclopirox olamine 0.5 wt %, malic acid and sodium borate, pH 5.3~5.7) | Result: whether or not a precipitate is generated (ciclopirox olamine 1.0 wt %, malic acid and sodium borate, pH 5.3~5.7) | Result: whether or not a precipitate is generated (ciclopirox olamine 2.0 wt %, malic acid and sodium borate, pH 5.3~5.7) | Result: whether or not a precipitate is generated (ciclopirox olamine 3.0 wt %, malic acid and sodium borate, pH 5.3~5.7) | Result: whether or not a precipitate is generated (ciclopirox olamine 4.0 wt %, malic acid and sodium borate, pH 5.3~5.7) | Result: whether or not a precipitate is generated (ciclopirox olamine 5.0 wt %, malic acid and sodium borate, pH 5.3~5.7) | Result: whether or not a precipitate is generated (ciclopirox olamine 6.0 wt %, malic acid and sodium borate, pH 5.3~5.7)

CN(C/C=C/C#CC(C)(C)C)Cc1cccc2ccccc12.Cl [Terbinafine hydrochloride, [(2E)-6,6-dimethylhept-2-en-4-yn-1-yl] (methyl) (naphthalen-1-ylmethyl)aminehydrochloride]
O: Whether or not a precipitate is generated [6] | Whether or not a precipitate is generated [7] | Whether or not a precipitate is generated [8] | Whether or not a precipitate is generated [9]
X: Whether or not a precipitate is generated [1] | Whether or not a precipitate is generated [2] | Whether or not a precipitate is generated [3] | Whether or not a precipitate is generated [4] | Whether or not a precipitate is generated [5]
